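The compound was tested at five concentrations on cells cultured in 96-well plates, with a 48-hour exposure period. GI50 marks 50% less growth.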 Calls of active or inactive are those of the source. Cut-off read from the data, not from the text of the source: active = GI50 up to about 1.1 µM and inactive = higher.
How the values were obtained:
Experiment in all cases: DTP human tumour cell line panel, 48 h
SF-539 = test system: SF-539
MCF7 = test system: MCF7
A498 = test system: A498
DU-145 = test system: DU-145
HCT-116 = test system: HCT-116
HT-29 = test system: HT-29
Hs-578T = test system: Hs-578T
SR = test system: SR
OVCAR-3 = test system: OVCAR-3
MDA-MB-231 = test system: MDA-MB-231
TK-10 = test system: TK-10
K562 = test system: K562
NCI-H460 = test system: NCI-H460
IGROV-1 = test system: IGROV-1
PC-3 = test system: PC-3
UO-31 = test system: UO-31
CCRF-CEM = test system: CCRF-CEM
SF-268 = test system: SF-268
OVCAR-5 = test system: OVCAR-5
786-0 = test system: 786-0

Measured: GI50

CC(=O)Oc1c(C)c2c(c3ncccc13)OC(C)C2 (stereo not given)
inactive: SF-539 15 µM | MCF7 13.3 µM | A498 20 µM | DU-145 16.2 µM | HCT-116 14.9 µM | HT-29 18.8 µM | Hs-578T 22.2 µM | SR 3.63 µM | OVCAR-3 32.4 µM | MDA-MB-231 11.5 µM | TK-10 22 µM | K562 10.2 µM | NCI-H460 10.8 µM | IGROV-1 6.98 µM | PC-3 26 µM | UO-31 14.8 µM | CCRF-CEM 6.37 µM | SF-268 14.4 µM | OVCAR-5 17.2 µM | 786-0 12.8 µM
